We go through 28 compounds from patent US20100234377A1 (priority 2007, published 2010).

Structures are written as SMILES.

The target in the assay is T1, human Prostaglandin D Synthase (GST2) (Homo sapiens, UniProt O60760).
T1 construct: the open reading frame of human Prostaglandin D Synthase was amplified from cDNA; made in house; host or cells: E. coli TOP10F'
T1 sequence (O60760 whole entry): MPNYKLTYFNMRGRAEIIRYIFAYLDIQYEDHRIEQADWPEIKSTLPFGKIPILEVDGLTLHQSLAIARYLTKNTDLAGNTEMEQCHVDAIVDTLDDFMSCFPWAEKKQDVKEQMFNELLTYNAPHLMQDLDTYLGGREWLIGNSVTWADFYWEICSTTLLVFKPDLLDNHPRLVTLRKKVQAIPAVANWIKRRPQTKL
Put plainly: Homogeneous biochemical assay of human Prostaglandin D Synthase (GST2) based on its glutathion-S-transferase activity (GSH conjugation to monochlorobimane, fluorescence). As to conditions: given beside the compound name in Examples 1 to 167; read-out: Potency Range (GST2 IC50). From the text: Homogeneous, Biochemical Assay Monitoring the Activity of Human Prostaglandin D Synthase Based on the Glutathion-S-Transferase Activity of the Enzyme
Prostaglandin D2 synthesis by Prostaglandin D synthase (GST2) requires transfer of Glutathion (GSH) to the substrate, Prostaglandin H2. […] Since the Prostaglandin D2 synthesis is absolutely dependent on the GST activity of the enzyme, assays monitoring the GST activity should allow to identify specific inhibitors of Prostaglandin D2 synthetic activity. The assay principle used is based on enzymatic conjugation of GSH to Monochlorobimane (MCB), that becomes fluorescent upon this chemical modification. Therefore, the enzymatic reaction can be monitored by total fluorescence measurement.
In brief, the open reading frame of human Prostaglandin D Synthase was amplified from cDNA using the primer pair:
This construct allows prokaryotic expression of Prostaglandin D Synthase as fusion protein with a N-terminal hexa-histidine tag, referred to as NHis-Prostaglandin D Synthase.
Expression of NHis-Prostaglandin D Synthase was in E. coli TOP10F′ (Invitrogen, Germany, cat. no. C3030-03). […] When the culture had reached a density corresponding to an A600 of 0.6, an equal volume of room temperature LB/ampicillin was added. […] Cells harvested by centrifugation were resuspended in 50 mM tris(hydroxymethyl)aminomethane hydrochloride pH 7.5 (Tris/HCl, Sigma, cat. no. T5941).
Removal of unbound material was with 100 ml lysis buffer. Elution was with 50 ml of 50 mM Tris/HCl pH 7.5, 300 mM imidazol (Sigma, Germany, cat. no. I2399)/HCl pH 7.5). […] Aliquots were shock frozen in liquid nitrogen and stored at −80° C.
All assay components were diluted in reaction buffer, 50 mM MES/KOH (pH 6.1), 0.7 mM GSH (Sigma, G4251), 2 mM MgCl2 (Sigma, M2670), 0.05% Pluronic F127 (Sigma, P2443), and stored on ice prior to use. Compounds were diluted in 90% DMSO yielding final assay concentrations from the picomolar to three digit micromolar range.
Total fluorescent measurement was carried out with excitation and emission wavelength of 390 and 460 nm, respectively (BMG Fluostar Optima).
Consider `O=C(c1cccc(F)n1)N1CCN(C(=S)Nc2ccc(OC(F)(F)F)cc2)CC1` [Compound 19, 4-(6-Fluoro-pyridine-2-carbonyl)-piperazine-1-carbothioic acid (4-trifluoromethoxy-phenyl)-amide], for which the concentration for half-maximal inhibition (IC50) (commonly the point on the concentration scale where inhibition reaches its midpoint) was in the range of 101 to 1000 nM.

Consider `O=C(c1cccc(F)n1)N1CCN(C(=S)Nc2ccc(C(F)(F)F)cc2)CC1` [Compound 20, 4-(6-Fluoro-pyridine-2-carbonyl)-piperazine-1-carbothioic acid (4-trifluoromethyl-phenyl)-amide], for which the IC50 fell in the range of 101 to 1000 nM.

`O=C(c1cccc(F)c1)N1CCN(C(=S)Nc2ccc(C(F)(F)F)cc2)CC1` [Compound 23, 4-(3-Fluoro-benzoyl)-piperazine-1-carbothioic acid (4-trifluoromethyl-phenyl)-amide]: the IC50 lay in the range of 11 to 100 nM.

On to `O=C(Nc1cc(Cl)nc(Cl)c1)N1CCN(C(=O)c2cccc(F)c2)CC1` [Compound 24, 4-(3-Fluoro-benzoyl)-piperazine-1-carboxylic acid (2,6-dichloro-pyridin-4-yl)-amide], for which the IC50 was in the range of 101 to 1000 nM.

As to `O=C(Nc1cccc(Oc2ccccc2)c1)N1CCN(C(=O)c2cccc(F)c2)CC1` [Compound 25, 4-(3-Fluoro-benzoyl)-piperazine-1-carboxylic acid (3-phenoxy-phenyl)-amide], the IC50 lay in the range of 11 to 100 nM.

Turning to `O=C(Nc1ccc(Oc2ccccc2)cc1)N1CCN(C(=O)c2cccc(F)c2)CC1` [Compound 26, 4-(3-Fluoro-benzoyl)-piperazine-1-carboxylic acid (4-phenoxy-phenyl)-amide], the IC50 was 11 to 100 nM.

As to `O=C(Nc1ccc2sccc2c1)N1CCN(C(=O)c2cccc(F)c2)CC1` [Compound 27, 4-(3-Fluoro-benzoyl)-piperazine-1-carboxylic acid benzo[b]thiophen-5-ylamide], the half-maximal inhibitory concentration (IC50) fell in the range of 11 to 100 nM.

Regarding `O=C(Nc1ccc(-c2cccs2)cc1)N1CCN(C(=O)c2cccc(F)c2)CC1` [Compound 28, 4-(3-Fluoro-benzoyl)-piperazine-1-carboxylic acid (4-thiophen-2-yl-phenyl)-amide], the IC50 was in the range of 11 to 100 nM.

With `O=C(Nc1cccc(N2CCOCC2)c1)N1CCN(C(=O)c2cccc(F)c2)CC1` [Compound 31, 4-(3-Fluoro-benzoyl)-piperazine-1-carboxylic acid (3-morpholin-4-yl-phenyl)-amide], the IC50 is 101 to 1000 nM.

In the case of `O=C(Nc1cccc(Br)c1)N1CCN(C(=O)c2cccc(F)c2)CC1` [Compound 32, 4-(3-Fluoro-benzoyl)-piperazine-1-carboxylic acid (3-bromo-phenyl)-amide], the half-maximal inhibitory concentration (IC50) lay within 11 to 100 nM.

With `CCOC(=O)c1ccc(NC(=O)N2CCN(C(=O)c3cccc(F)c3)CC2)cc1` [Compound 33, 4-{[4-(3-Fluoro-benzoyl)-piperazine-1-carbonyl]-amino}-benzoic acid ethyl ester], the IC50 lay in the range of 101 to 1000 nM.

`COC(=O)c1cccc(NC(=O)N2CCN(C(=O)c3cccc(F)c3)CC2)c1` [Compound 34, 3-{[4-(3-Fluoro-benzoyl)-piperazine-1-carbonyl]-amino}-benzoic acid methyl ester]: the IC50 was in the range of 11 to 100 nM.

On to `N#Cc1cccc(NC(=O)N2CCN(C(=O)c3cccc(F)c3)CC2)c1` [Compound 35, 4-(3-Fluoro-benzoyl)-piperazine-1-carboxylic acid (3-cyano-phenyl)-amide], for which the concentration for half-maximal inhibition (IC50) was 11 to 100 nM.

Turning to `O=C(Nc1cccc([N+](=O)[O-])c1)N1CCN(C(=O)c2cccc(F)c2)CC1` [Compound 36, 4-(3-Fluoro-benzoyl)-piperazine-1-carboxylic acid (3-nitro-phenyl)-amide], the IC50 lay within 101 to 1000 nM.

Consider `O=C(Nc1ccc([N+](=O)[O-])cc1)N1CCN(C(=O)c2cccc(F)c2)CC1` [Compound 37, 4-(3-Fluoro-benzoyl)-piperazine-1-carboxylic acid (4-nitro-phenyl)-amide], for which the IC50 lay in the range of 101 to 1000 nM.

As to `O=C(Nc1ccc(N2CCOCC2)c(Cl)c1)N1CCN(C(=O)c2cccc(F)c2)CC1` [Compound 38, 4-(3-Fluoro-benzoyl)-piperazine-1-carboxylic acid (3-chloro-4-morpholin-4-yl-phenyl)-amide], the IC50 fell in the range of 11 to 100 nM.

With `O=C(c1cccc(F)n1)N1CCN(C(=S)Nc2ccc(N3CCOCC3)c(F)c2)CC1` [Compound 40, 4-(6-Fluoro-pyridine-2-carbonyl)-piperazine-1-carbothioic acid (3-fluoro-4-morpholin-4-yl-phenyl)-amide], the IC50 was in the range of 101 to 1000 nM.

In the case of `O=C(Nc1ccc(N2CCOCC2)c(F)c1)N1CCN(C(=O)c2cccc(F)c2)CC1` [Compound 41, 4-(3-Fluoro-benzoyl)-piperazine-1-carboxylic acid (3-fluoro-4-morpholin-4-yl-phenyl)-amide], the IC50 fell in the range of 11 to 100 nM.

With `O=C(c1ccccc1)c1ccc(NC(=O)N2CCN(C(=O)c3cccc(F)c3)CC2)cc1` [Compound 42, 4-(3-Fluoro-benzoyl)-piperazine-1-carboxylic acid (4-benzoyl-phenyl)-amide], the 50% inhibitory concentration (IC50) lay within 11 to 100 nM.

As for `O=C(Nc1ccc(Br)c(-c2ccncc2)c1)N1CCN(C(=O)c2cccc(F)c2)CC1` [Compound 43, 4-(3-Fluoro-benzoyl)-piperazine-1-carboxylic acid (4-bromo-3-pyridin-4-yl-phenyl)-amide], the IC50 fell in the range of 11 to 100 nM.

On to `O=C(Nc1ccc(Oc2cccnc2)nc1)N1CCN(C(=O)c2cccc(F)c2)CC1` [Compound 44, 4-(3-Fluoro-benzoyl)-piperazine-1-carboxylic acid [6-(pyridin-3-yloxy)-pyridin-3-yl]-amide], for which the half-maximal inhibitory concentration (IC50) fell in the range of 101 to 1000 nM.

On to `O=C(Nc1cnc2ccccc2c1)N1CCN(C(=O)c2cccc(F)c2)CC1` [Compound 45, 4-(3-Fluoro-benzoyl)-piperazine-1-carboxylic acid quinolin-3-ylamide], for which the concentration for half-maximal inhibition (IC50) lay in the range of 101 to 1000 nM.

`CC(C)(C)OC(=O)N1CCN(c2ccc(NC(=O)N3CCN(C(=O)c4cccc(F)c4)CC3)cc2F)CC1` [Compound 46, 4-(2-Fluoro-4-{[4-(3-fluoro-benzoyl)-piperazine-1-carbonyl]-amino}-phenyl)-piperazine-1-carboxylic acid tert-butyl ester]: the IC50 lay in the range of 11 to 100 nM.

Regarding `O=C(Nc1ccc(N2CCOCC2)c(F)c1)N1CCN(C(=O)c2cc(F)ccc2F)CC1` [Compound 47, 4-(2,5-Difluoro-benzoyl)-piperazine-1-carboxylic acid (3-fluoro-4-morpholin-4-yl-phenyl)-amide], the half-inhibitory concentration (IC50) was in the range of 101 to 1000 nM.

On to `CC(C)(C)OC(=O)N1CCN(c2ccc(NC(=O)N3CCN(C(=O)c4cc(F)ccc4F)CC3)cc2F)CC1` [Compound 48, 4-(4-{[4-(2,5-Difluoro-benzoyl)-piperazine-1-carbonyl]-amino}-2-fluoro-phenyl)-piperazine-1-carboxylic acid tert-butyl ester], for which the IC50 lay within 101 to 1000 nM.

In the case of `O=C(Nc1ccc([N+](=O)[O-])cc1)N1CCN(C(=O)c2cc(F)ccc2F)CC1` [Compound 49, 4-(2,5-Difluoro-benzoyl)-piperazine-1-carboxylic acid (4-nitro-phenyl)-amide], the IC50 fell in the range of 101 to 1000 nM.

On to `CCCCNC(=O)N1CCN(c2ccc(NC(=O)N3CCN(C(=O)c4cccc(F)c4)CC3)cc2F)CC1` [Compound 53], for which the IC50 fell in the range of 11 to 100 nM.

On to `O=C(Nc1ccc(N2CCN(C(=O)NC3CCCC3)CC2)c(F)c1)N1CCN(C(=O)c2cccc(F)c2)CC1` [Compound 54, N-{4-[4-(cyclopentylcarbamoyl)piperazin-1-yl]-3-fluorophenyl}-4-(3-fluorobenzoyl)piperazine-1-carboxamide], for which the IC50 was 11 to 100 nM.
